≈ marks a conversion by molar mass, not a printed value.
Tests used:
Type in all cases: functional
Staphylococcus aureus [1] = experiment: Antibacterial activity against methicillin-resistant Staphylococcus aureus assessed growth inhibition by micro broth dilution method
Staphylococcus aureus [2] = experiment: Antibacterial activity against Staphylococcus aureus assessed growth inhibition by micro broth dilution method
Staphylococcus aureus [3] = experiment: Antibacterial activity against Staphylococcus aureus ATCC 25923 assessed growth inhibition by micro broth dilution method
Staphylococcus aureus [4] = experiment: Antibacterial activity against Staphylococcus aureus ATCC 29213 assessed growth inhibition by micro broth dilution method
Enterococcus faecalis = experiment: Antibacterial activity against Enterococcus faecalis assessed growth inhibition by micro broth dilution method
Klebsiella pneumoniae = experiment: Antibacterial activity against Klebsiella pneumonia assessed growth inhibition by micro broth dilution method
Escherichia coli [5] = experiment: Antibacterial activity against Escherichia coli assessed growth inhibition by micro broth dilution method
Escherichia coli [6] = experiment: Antibacterial activity against Escherichia coli ATCC 25922 assessed growth inhibition by micro broth dilution method
Pseudomonas aeruginosa [7] = experiment: Antibacterial activity against Pseudomonas aeruginosa assessed growth inhibition by micro broth dilution method
Pseudomonas aeruginosa [8] = experiment: Antibacterial activity against Pseudomonas aeruginosa ATCC 27853 assessed growth inhibition by micro broth dilution method
Acinetobacter baumannii = experiment: Antibacterial activity against Acinetobacter baumannii assessed growth inhibition by micro broth dilution method

| SMILES | MIC (Staphylococcus aureus [1]) [µg/mL] | MIC (Staphylococcus aureus [2]) [µg/mL] | MIC (Staphylococcus aureus [3]) [µg/mL] | MIC (Staphylococcus aureus [4]) [µg/mL] | MIC (Enterococcus faecalis) [µg/mL] | MIC (Klebsiella pneumoniae) [µg/mL] | MIC (Escherichia coli [5]) [µg/mL] | MIC (Escherichia coli [6]) [µg/mL] | MIC (Pseudomonas aeruginosa [7]) [µg/mL] | MIC (Pseudomonas aeruginosa [8]) [µg/mL] | MIC (Acinetobacter baumannii) [µg/mL] |
| --- | --- | --- | --- | --- | --- | --- | --- | --- | --- | --- | --- |
| CCOC(=O)c1cn(Cc2ccc(F)cc2F)c2cc([C-](C#N)C(=O)OCC)c(F)cc2c1=O.[Na+] (stereo not drawn) | 64 | 128 | 0.5 | 4 | 8 | 4 | 1 | 2 | 64 | 2 | 32 |
| CCOC(=O)C(C#N)c1cc2c(cc1F)c(=O)c(C(=O)O)cn2CC=C(C)C (stereo not drawn) | 8 (≈ 20.7 µM) | 4 (≈ 10.4 µM) | 4 (≈ 10.4 µM) | 4 (≈ 10.4 µM) | 64 (≈ 166 µM) | 0.25 (≈ 0.647 µM) | 32 (≈ 82.8 µM) | 1 (≈ 2.59 µM) | 8 (≈ 20.7 µM) | 1 (≈ 2.59 µM) | 1 (≈ 2.59 µM) |
| CCOC(=O)c1cn(C)c2cc(F)c(F)cc2c1=O | 256 (≈ 958 µM) | 128 (≈ 479 µM) | 256 (≈ 958 µM) | 128 (≈ 479 µM) | 128 (≈ 479 µM) | 64 (≈ 239 µM) | 16 (≈ 59.9 µM) | 128 (≈ 479 µM) | 64 (≈ 239 µM) | 256 (≈ 958 µM) | 256 (≈ 958 µM) |
| CCOC(=O)c1cn(Cc2ccc(Cl)cc2)c2cc(F)c(F)cc2c1=O | 256 (≈ 678 µM) | 64 (≈ 169 µM) | 256 (≈ 678 µM) | 256 (≈ 678 µM) | 64 (≈ 169 µM) | 32 (≈ 84.7 µM) | 1 (≈ 2.65 µM) | 128 (≈ 339 µM) | 256 (≈ 678 µM) | 256 (≈ 678 µM) | 4 (≈ 10.6 µM) |
| CCOC(=O)c1cn(CC(=O)N2CCN(C(=O)OC(C)(C)C)CC2)c2cc([C-](C#N)C(=O)OCC)c(F)cc2c1=O.[Na+] (stereo not drawn) | 32 | 256 | 16 | 32 | 64 | 128 | 16 | 16 | 64 | 4 | 32 |
| CCOC(=O)c1cn(C2CC2)c2cc(C(C#N)C(=O)OCC)c(F)cc2c1=O (stereo not drawn) | 128 (≈ 331 µM) | 16 (≈ 41.4 µM) | 8 (≈ 20.7 µM) | 32 (≈ 82.8 µM) | 32 (≈ 82.8 µM) | 8 (≈ 20.7 µM) | 32 (≈ 82.8 µM) | 32 (≈ 82.8 µM) | 8 (≈ 20.7 µM) | 64 (≈ 166 µM) | 32 (≈ 82.8 µM) |
| CCOC(=O)c1cn(Cc2cccc(Cl)c2)c2cc([C-](C#N)C(=O)OCC)c(F)cc2c1=O.[Na+] (stereo not drawn) | 64 | 128 | 1 | 2 | 1 | 4 | 0.5 | 2 | 16 | 2 | 64 |
| CCOC(=O)c1cn(CC2CCCCC2)c2cc(C(C#N)C(=O)OCC)c(F)cc2c1=O (stereo not drawn) | 64 (≈ 145 µM) | 64 (≈ 145 µM) | 1 (≈ 2.26 µM) | 4 (≈ 9.04 µM) | 16 (≈ 36.2 µM) | 4 (≈ 9.04 µM) | 4 (≈ 9.04 µM) | 0.5 (≈ 1.13 µM) | 1 (≈ 2.26 µM) | 1 (≈ 2.26 µM) | 4 (≈ 9.04 µM) |
| CCCCCn1cc(C(=O)OCC)c(=O)c2cc(F)c([C-](C#N)C(=O)OCC)cc21.[Na+] (stereo not drawn) | 32 | 32 | 1 | 4 | 4 | 4 | 4 | 1 | 4 | 4 | 4 |
| CCOC(=O)c1cn(Cc2ccccc2)c2cc([C-](C#N)C(=O)OCC)c(F)cc2c1=O.[Na+] (stereo not drawn) | 256 | 64 | 0.5 | 4 | 64 | 4 | 4 | 2 | 32 | 4 | 8 |
| CCOC(=O)C(C#N)c1c(F)cc2c(=O)c(C(=O)O)cn3c2c1OC[C@@H]3C (stereo partly drawn) | 4 (≈ 10.7 µM) | 4 (≈ 10.7 µM) | 32 (≈ 85.5 µM) | 4 (≈ 10.7 µM) | 128 (≈ 342 µM) | 8 (≈ 21.4 µM) | 32 (≈ 85.5 µM) | 1 (≈ 2.67 µM) | 16 (≈ 42.7 µM) | 8 (≈ 21.4 µM) | 1 (≈ 2.67 µM) |
| CCOC(=O)c1cn(CCN2CCOCC2)c2cc(F)c(F)cc2c1=O | 256 (≈ 699 µM) | 64 (≈ 175 µM) | 256 (≈ 699 µM) | 256 (≈ 699 µM) | 128 (≈ 349 µM) | 256 (≈ 699 µM) | 2 (≈ 5.46 µM) | 128 (≈ 349 µM) | 128 (≈ 349 µM) | 128 (≈ 349 µM) | 2 (≈ 5.46 µM) |
| CCOC(=O)c1cn(CC)c2c(F)c(F)c(F)cc2c1=O | 128 (≈ 428 µM) | 32 (≈ 107 µM) | 64 (≈ 214 µM) | 128 (≈ 428 µM) | 128 (≈ 428 µM) | 32 (≈ 107 µM) | 8 (≈ 26.7 µM) | 64 (≈ 214 µM) | 32 (≈ 107 µM) | 256 (≈ 855 µM) | 32 (≈ 107 µM) |
| CCOC(=O)C(C#N)c1cc2c(cc1F)c(=O)c(C(=O)O)cn2Cc1ccc(Cl)c(Cl)c1 (stereo not drawn) | 32 (≈ 67 µM) | 64 (≈ 134 µM) | 32 (≈ 67 µM) | 64 (≈ 134 µM) | 128 (≈ 268 µM) | 4 (≈ 8.38 µM) | 128 (≈ 268 µM) | 0.5 (≈ 1.05 µM) | 16 (≈ 33.5 µM) | 4 (≈ 8.38 µM) | 16 (≈ 33.5 µM) |
| CCOC(=O)c1cn(Cc2cnc(Cl)s2)c2cc([C-](C#N)C(=O)OCC)c(F)cc2c1=O.[Na+] (stereo not drawn) | 4 | 32 | 4 | 8 | 4 | 32 | 4 | 8 | 64 | 2 | 16 |
| CCOC(=O)c1cn(CC2CCCCC2)c2cc(F)c(F)cc2c1=O | 128 (≈ 366 µM) | 16 (≈ 45.8 µM) | 2 (≈ 5.72 µM) | 64 (≈ 183 µM) | 128 (≈ 366 µM) | 8 (≈ 22.9 µM) | 4 (≈ 11.4 µM) | 128 (≈ 366 µM) | 64 (≈ 183 µM) | 256 (≈ 733 µM) | 256 (≈ 733 µM) |
| CCOC(=O)c1cn(Cc2ccccc2)c2cc(F)c(F)cc2c1=O | 256 (≈ 746 µM) | 128 (≈ 373 µM) | 256 (≈ 746 µM) | 256 (≈ 746 µM) | 128 (≈ 373 µM) | 256 (≈ 746 µM) | 2 (≈ 5.83 µM) | 128 (≈ 373 µM) | 256 (≈ 746 µM) | 256 (≈ 746 µM) | 2 (≈ 5.83 µM) |
| CCOC(=O)c1cn(CC2CCC2)c2cc([C-](C#N)C(=O)OCC)c(F)cc2c1=O.[Na+] (stereo not drawn) | 16 | 8 | 4 | 8 | 2 | 8 | 64 | 2 | 16 | 8 | 4 |
| CCCCCCCCCCCCn1cc(C(=O)OCC)c(=O)c2cc(F)c(F)cc21 | 256 (≈ 607 µM) | 32 (≈ 75.9 µM) | 128 (≈ 304 µM) | 32 (≈ 75.9 µM) | 64 (≈ 152 µM) | 16 (≈ 38 µM) | 16 (≈ 38 µM) | 64 (≈ 152 µM) | 64 (≈ 152 µM) | 256 (≈ 607 µM) | 64 (≈ 152 µM) |
| NC1CCN(c2c(F)cc3c(=O)c(C(=O)O)cn(C4CC4)c3c2Cl)C1 (stereo not drawn) [CLINAFLOXACIN] | 1 (≈ 2.73 µM) | 0.5 (≈ 1.37 µM) | 0.5 (≈ 1.37 µM) | 0.5 (≈ 1.37 µM) | 4 (≈ 10.9 µM) | 0.5 (≈ 1.37 µM) | 0.25 (≈ 0.683 µM) | 0.25 (≈ 0.683 µM) | 0.5 (≈ 1.37 µM) | 0.5 (≈ 1.37 µM) | 0.5 (≈ 1.37 µM) |
| CCOC(=O)c1cn(CC)c2c(F)c([C-](C#N)C(=O)OCC)c(F)cc2c1=O.[Na+] (stereo not drawn) | 32 | 16 | 16 | 16 | 32 | 16 | 64 | 1 | 64 | 16 | 32 |
| CCCCCCCCn1cc(C(=O)OCC)c(=O)c2cc(F)c(F)cc21 | 256 (≈ 701 µM) | 4 (≈ 10.9 µM) | 128 (≈ 350 µM) | 16 (≈ 43.8 µM) | 64 (≈ 175 µM) | 64 (≈ 175 µM) | 4 (≈ 10.9 µM) | 64 (≈ 175 µM) | 64 (≈ 175 µM) | 256 (≈ 701 µM) | 64 (≈ 175 µM) |
| CCOC(=O)c1cn(CC2CCCC2)c2cc(F)c(F)cc2c1=O | 256 (≈ 763 µM) | 64 (≈ 191 µM) | 16 (≈ 47.7 µM) | 128 (≈ 382 µM) | 256 (≈ 763 µM) | 32 (≈ 95.4 µM) | 8 (≈ 23.9 µM) | 128 (≈ 382 µM) | 128 (≈ 382 µM) | 256 (≈ 763 µM) | 256 (≈ 763 µM) |
| CCOC(=O)c1cn(CC2CCCC2)c2cc([C-](C#N)C(=O)OCC)c(F)cc2c1=O.[Na+] (stereo not drawn) | 16 | 16 | 8 | 4 | 2 | 8 | 128 | 2 | 8 | 8 | 4 |
| CCOC(=O)c1cn(Cc2ccc(Cl)c(Cl)c2)c2cc(C(C#N)C(=O)OCC)c(F)cc2c1=O (stereo not drawn) | 8 (≈ 15.8 µM) | 4 (≈ 7.92 µM) | 1 (≈ 1.98 µM) | 0.25 (≈ 0.495 µM) | 16 (≈ 31.7 µM) | 1 (≈ 1.98 µM) | 8 (≈ 15.8 µM) | 4 (≈ 7.92 µM) | 0.5 (≈ 0.989 µM) | 2 (≈ 3.96 µM) | 2 (≈ 3.96 µM) |
| CCCn1cc(C(=O)OCC)c(=O)c2cc(F)c(F)cc21 | 256 (≈ 867 µM) | 64 (≈ 217 µM) | 256 (≈ 867 µM) | 128 (≈ 433 µM) | 256 (≈ 867 µM) | 64 (≈ 217 µM) | 32 (≈ 108 µM) | 128 (≈ 433 µM) | 128 (≈ 433 µM) | 256 (≈ 867 µM) | 256 (≈ 867 µM) |
| CCCCn1cc(C(=O)OCC)c(=O)c2cc(F)c([C-](C#N)C(=O)OCC)cc21.[Na+] (stereo not drawn) | 32 | 64 | 2 | 8 | 16 | 16 | 8 | 16 | 8 | 8 | 16 |
| C=CCn1cc(C(=O)OCC)c(=O)c2cc(F)c([C-](C#N)C(=O)OCC)cc21.[Na+] (stereo not drawn) | 128 | 128 | 2 | 32 | 64 | 32 | 32 | 16 | 16 | 16 | 16 |

From ChEMBL document CHEMBL5528028, “Discovery of benzopyridone cyanoacetates as new type of potential broad-spectrum antibacterial candidates” (Eur J Med Chem, 2024)
